“Also recorded” adds a separate entry of the source.
Assays:
MRC-5 lung fibroblasts = assay: Comet assay in MRC-5 lung fibroblasts; assay type: cell-based
Description: (§1) Comet Assay. Cells were treated with compounds for 6 days, upon which DNA single-strand breaks were assayed using the comet assay under alkali conditions. […] Cells were washed twice with PBS, harvested using a rubber scraper, pelleted by centrifugation, resuspended in PBS and mixed with 1% low-gelling-temperature agarose (Sigma type VII) that was maintained at 37° C. The mixture of cells and agarose was layered onto frosted glass slides pre-coated with 0.5% agarose and slides were placed on ice to gel. Slides were maintained in the dark for all subsequent steps. […] After electrophoresis for 25 minutes at 25 volts, slides were placed at 4° C. over-night, in the dark. The following day, slides were neutralized with 0.4 M Tris-HCl pH 7.0 for 1 hour and stained with SYBR Gold (Invitrogen, diluted 1:10,000 in distilled water) for 30 minutes. Comet tail moments (defined as the average distance migrated by the DNA multiplied by the fraction of DNA in the comet tail) were scored using the CellProfiler cell image analysis software.

[1] = tested on: Ewing's sarcoma family of tumours (ESFT) cells
BJ fibroblasts = assay: 8-oxo-guanine staining in BJ cells; conditions: fixed 72 h later
BJ skin fibroblasts = assay: Colony formation assay with untransformed BJ skin fibroblasts; assay type: cell-based, human; conditions: 10 days incubation; listed as (R)-enantiomer
[2] = tested on: SH-SY5Y, NCI-H3122 and NCI-H1648 cell lysates; assay: Chemical proteomics competition pull-downs (iTRAQ) in SH-SY5Y, NCI-H3122 and NCI-H1648 lysates; assay type: binding, human; conditions: competition with 20 μM unmodified crizotinib
MTH1 [3] = biological target: T1, MTH1 (Homo sapiens, UniProt P36639); assay: MTH1 catalytic assay (luminescence-based, PPi from 8-oxo-dGTP hydrolysis, PPiLight); assay type: biochemical; parameters: His-tag (TEV site) (cleaved yes); made in house; host or cells: E. coli BL-21(DE3), vector pETM-11
ALK = assay: Drug pull-down with immobilized compounds from SH-SY5Y cells, Western blot for ALK; assay type: binding, human; conditions: SH-SY5Y lysate
Description: Immobilization and Affinity Purification. […] Briefly, 25 nmol of compound was immobilised on 50 μL NHS-activated Sepharose 4 Fast Flow beads (GE Healthcare Bio-Sciences AB, Uppsala, Sweden).

SW480 cells [4] = assay: Colony formation assay using SW480 cells; assay type: cell-based, human; conditions: K-Ras-mutated SW480 colon carcinoma
Description: Colony Formation Assay Using SW480 Cells. One day before treatment, 10^4 cells were seeded per well in 6-well plates and incubated for 24 h. The next day DMSO (equal to highest amount of compound dilution, maximum 0.2%) or compounds in increasing concentrations were added and cells incubated at 37° C., 5% CO2, for 7-10 days. After washing with PBS (Gibco), cells were fixed with ice-cold methanol, stained with crystal violet solution (0.5% in 25% methanol) and left to dry overnight. For quantification of results, UV absorbance of crystal violet was determined at 595 nm after solubilisation by 70% ethanol. Data were analysed using non-linear regression analysis utilizing the GraphPad Prism software.

MTH1 [5] = biological target: T1, MTH1; assay: Isothermal titration calorimetry (direct binding assay); parameters: His-tag (TEV site) (cleaved yes); made in house; host or cells: E. coli BL21 DE3; conditions: 15° C., 50 mM Tris-HCl pH 7.8, 150 mM NaCl
SW480 cells [6] = assay: Alkaline comet assay (DNA single strand breaks) in SW480 cells; assay type: cell-based, human; conditions: 6 days treatment, alkali conditions
Description: as §1

SW480 cells [7] = assay: Indirect immunofluorescence for 53BP1 foci in SW480 cells; assay type: cell-based, human; conditions: 6 days treatment
Description: Indirect Immunofluorescence. Cells were treated with compounds for 6 days, following which they were adhered to glass coverslips, washed with PBS and then fixed with 3% paraformaldehyde in PBS for 20 minutes. Fixed cells were rinsed with PBS and permebealised with 0.5% Triton-X-100 for 5 minutes. PBS washed slides were incubated for 1 hour with 10% FCS and 0.1% Triton-X-100 in PBS following which cells were stained with an anti-53BP1 monoclonal antibody (H-300, Santa Cruz, diluted 1:600), in 10% FCS and 0.1% Triton-X-100 in PBS. […] After a PBS wash, DNA was counterstained with DAPI (Sigma-Aldrich) for 10 minutes and the coverslips were mounted in Fluorescent Mounting Medium (Dako). Images were analysed with a Zeiss fluorescent microscope at 63 times magnification with supporting software.

[8] = tested on: SW480 colon carcinoma cells; assay: siRNA experiments (MTH1 gene silencing, colony staining); assay type: cell-based, human
Description: siRNA Experiments. Both a commercial anti-MTH1 siRNA set (SMARTpool ON-TARGETplus, Dharmacon) as well as a custom-synthesised siRNA (Sigma-Aldrich) were obtained. […]. For transfections, cells were seeded in 24-well plates at approximately 30% confluency 24 h prior to siRNA treatment. The next day, medium was aspirated and transfections were performed with […]in (Polyplus) according to manufacturer's instructions using a final siRNA concentration of 10 nM. Cells were incubated for 2-3 days, washed, detached with trypsin and replated in 6-well plates. After 7-10 days, medium was aspirated, cells were washed with PBS, fixed with ice-cold methanol, stained with crystal violet solution (0.5% in 25% methanol) and left to dry overnight. […]. Data were analysed using the GraphPad Prism software (t test, P<0.05).

[9] = error of nonlinear least squares fit

CC(Oc1cc(-c2cnn(C3CCNCC3)c2)cnc1N)c1c(Cl)ccc(F)c1Cl (racemic) [racemic crizotinib, 3-[1-(2,6-dichloro-3-fluoro-phenyl)-ethoxy]-5-(1-piperidin-4-yl-1H-pyrazol-4-yl)-pyridin-2-ylamine]
DNA damage in comet assay (MRC-5 lung fibroblasts): induced DNA damage

C[C@@H](Oc1cc(-c2cnn(C3CCNCC3)c2)cnc1N)c1c(Cl)ccc(F)c1Cl [(R)-crizotinib, 3-[1-(2,6-dichloro-3-fluoro-phenyl)-ethoxy]-5-(1-piperidin-4-yl-1H-pyrazol-4-yl)-pyridin-2-ylamine]
growth inhibition of ESFT cells [1]: inhibited the growth of these cells at low nanomolar concentrations | staining of anti-8-oxo-guanine antibody (BJ fibroblasts): not | toxicity on non-transformed BJ skin fibroblasts (colony formation) (BJ skin fibroblasts): significantly impairs the growth; also recorded: higher toxicity | targets identified by chemical proteomics [2]: common target of crizotinib in all samples

CC(Oc1cc(-c2cnn(C3CCN(CCCN)CC3)c2)cnc1N)c1c(Cl)ccc(F)c1Cl (stereo not drawn) [CeMM-146]
inhibition of MTH1 catalytic activity (in words) (MTH1 [3]; 8-oxo-dGTP hydrolysis): nanomolar inhibition | enrichment / binding of ALK isoforms by immobilized compound (ALK): enriches both ALK isoforms to highest extent

Cn1cc(-c2ccc3nnc(C(F)(F)c4ccc5ncccc5c4)n3n2)cn1 [JNJ-38877605, reference compound]
colony formation / growth of SW480 cells (SW480 cells [4]): does not suppress growth

COc1cc(N2CCC(N3CCN(C)CC3)CC2)ccc1Nc1ncc(Cl)c(Nc2ccccc2S(=O)(=O)C(C)C)n1 [NVP-TAE684, reference compound]
inhibition of MTH1 catalytic activity at 100 μM (MTH1 [3]; concentrations of 100 μM, data not shown): did not exhibit any significant inhibition

COc1ccc2nc3c(c(C)nn3C)c(NCCOCCO)c2c1 [SCH51344]
TΔS (MTH1 [5]): 3.17 kcal/mol | Kd (MTH1 [5]; [9]): 0.049 ± 0.0056 µM | ΔH (MTH1 [5]; [9]): -6.479 ± 0.045 kcal/mol | tail moment in the comet assay (SW480 cells [6]): yielded a significant tail moment | number of 53BP1 foci (SW480 cells [7]): increase the number of 53BP1 foci

anti-MTH1 siRNA: siRNA against MTH1; custom sequence CGACGACAGCUACUGGUUU (SEQ ID No. 48) or SMARTpool set (listed as RNA, chemistry not given here)
viability of SW480 cells after MTH1 gene silencing [8]: impairs viability

From patent US9446039B2, “Aminoheteroaryl compounds as MTH1 inhibitors” (CEMM—FORSCHUNGSZENTRUM FÜR MOLEKULARE MEDIZIN GMBH, priority 2012, dated 2016)
